According to patent EP4745135A1 (Gluetacs Therapeutics (Shanghai) Co., Ltd., priority 2023, dated 2025):

Columns and labels:
[1] = target: T1, human Cereblon WT GST-tagged protein (Homo sapiens, UniProt Q96SW2); experiment: CRBN-binding affinity, HTRF (CEREBLON BINDING kit); conditions: for inhibition at 0.5 µM: read-out: Inhibition Rate at 0.5 µM (%); for inhibition at 2 µM: read-out: Inhibition Rate at 2 µM (%)
T1 construct: purchased CISBIO 64BDCRBNPEH

[2] = system: Human multiple myeloma cell (MM.1S); experiment: Tumor cell proliferation inhibition (CellTiter-Meiluncell luminescent cell viability assay); conditions: for inhibition at 0.01 µM / inhibition at 0.5 µM: Homo sapiens, MM1.S, 96 h; for inhibition at 0.01 µM: read-out: Inhibition Rate at 10 nM (%); for Inhibition Rate at 500 nM (%): MM.1S, 96 hours; for inhibition at 0.5 µM: read-out: Inhibition Rate at 500 nM (%)
IKZF3 = target: T2, IKZF3 (Homo sapiens, UniProt Q96SW2+Q9UKT9); experiment: Western blot, degradation of substrate protein in hPBMCs; type: cell-based
T2 construct: effects of the compounds of the present disclosure on the expression of target proteins in cells; endogenous in cells; host or cells: human PBMCs (Milecell Biotechnologies)

WEE1 = target: T3, WEE1 (Homo sapiens, UniProt P30291+Q96SW2); experiment: as above; type: cell-based
T3 construct: effects of the compounds of the present disclosure on the expression of target proteins in cells; endogenous in cells; host or cells: human PBMCs (Milecell Biotechnologies)

IKZF1 = target: T4, IKZF1 (Homo sapiens, UniProt Q13422+Q96SW2); experiment: as above; type: cell-based
T4 construct: effects of the compounds of the present disclosure on the expression of target proteins in cells; endogenous in cells; host or cells: human PBMCs (Milecell Biotechnologies)

CK1α = target: T5, CK1α (Homo sapiens, UniProt P48729+Q96SW2); experiment: as above; type: cell-based
T5 construct: effects of the compounds of the present disclosure on the expression of target proteins in cells; endogenous in cells; host or cells: human PBMCs (Milecell Biotechnologies)

IKZF2 = target: T6, IKZF2 (Homo sapiens, UniProt Q96SW2+Q9UKS7); experiment: as above; type: cell-based
T6 construct: effects of the compounds of the present disclosure on the expression of target proteins in cells; endogenous in cells; host or cells: human PBMCs (Milecell Biotechnologies)

[3] = system: Human myeloid monocytic leukemia cell (MV-4-11); experiment: Tumor cell proliferation inhibition (CellTiter-Meiluncell luminescent cell viability assay); conditions: MV4-11, 96 h; for inhibition at 0.01 µM: read-out: Inhibition Rate at 10 nM (%); for inhibition at 0.5 µM: read-out: Inhibition Rate at 500 nM (%)
Protocol: The tumor cells used herein were cultured in a cell culture medium listed in table 2 at 37°C in an incubator with 5% CO2. Prior to experimentation, all cell lines used were correctly identified by STR profiling, and tested negative for mycoplasma contamination using a mycoplasma detection kit through routine screenings.
The IC50 values of the compounds of the present disclosure (including the compounds in Table 1 and Examples) were determined using the CellTiter-Meiluncell Luminescent Cell Viability Assay Kit from Dalian Meilun Biotech Co., Ltd. The detailed procedure is as follows: Tumor cells were seeded in 96-well cell culture plates at the densities specified in Table 3. On the following day, the test compounds of the present disclosure were subjected to serial dilution. The dilution can be performed according to one of the following two methods: • (1) The first dilution method: The test compounds of the present disclosure (including the compounds in Table 1 and Examples) were subjected to 5-fold serial dilutions starting from a highest concentration of 2000 µM, resulting in a total of 9 concentrations from high to low (2000, 400, 80, 16, 3.2, 0.64, 0.128, 0.0256, 0.00512 µM). Subsequently, 0.5 µL of the test compound dilution was transferred into the 96-well plate containing the cells, with each well containing 100 µL of cell culture medium. […] Into the 96-well plate, the diluted test compounds and corresponding detection reagents were added, resulting in final test compound concentrations of 500 nM and 10 nM, respectively. The experimental procedure is described below using the diluted 2 µM test compound as an example.
0.5 µL of the aforementioned diluted compound of the present disclosure (including the compounds in Table 1 and Examples) was added to the seeded cells in 100 µL of medium, yielding a final test compound concentration of 10 nM. After the cells were treated with the compounds of the present disclosure for a specified period, the cell viability assay reagent was added to the culture medium according to the kit's instructions to determine cell viability. […] All controls were treated using the same procedure as the compounds of the present disclosure. The growth inhibition curves for the compounds of the present disclosure were plotted using Prism GraphPad software, and the IC50 values were calculated therefrom.

GSPT1 = experiment: Western blot, degradation of substrate protein in hPBMCs; type: cell-based, Human
[4] = Western blot, 24 hours of compound treatment, compounds tested at 50 nM and 500 nM (concentration for the table not stated)
[5] = 24 hours treatment, compounds at 50 nM and 500 nM (concentration behind the class not stated)

T2 sequence (Q9UKT9 whole entry): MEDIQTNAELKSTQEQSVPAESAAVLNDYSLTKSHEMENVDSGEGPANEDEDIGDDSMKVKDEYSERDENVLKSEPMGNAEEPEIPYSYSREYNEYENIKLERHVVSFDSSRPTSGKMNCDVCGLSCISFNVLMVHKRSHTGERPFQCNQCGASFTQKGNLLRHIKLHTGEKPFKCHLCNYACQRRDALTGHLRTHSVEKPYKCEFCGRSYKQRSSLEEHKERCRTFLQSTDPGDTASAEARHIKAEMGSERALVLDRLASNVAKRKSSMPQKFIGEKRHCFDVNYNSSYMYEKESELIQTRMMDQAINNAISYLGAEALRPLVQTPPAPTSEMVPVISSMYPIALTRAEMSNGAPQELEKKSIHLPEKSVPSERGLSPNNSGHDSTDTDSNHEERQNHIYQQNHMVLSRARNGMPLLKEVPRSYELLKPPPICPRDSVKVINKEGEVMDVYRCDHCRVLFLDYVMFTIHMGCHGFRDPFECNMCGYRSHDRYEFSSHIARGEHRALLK
T2 sequence (Q96SW2 whole entry): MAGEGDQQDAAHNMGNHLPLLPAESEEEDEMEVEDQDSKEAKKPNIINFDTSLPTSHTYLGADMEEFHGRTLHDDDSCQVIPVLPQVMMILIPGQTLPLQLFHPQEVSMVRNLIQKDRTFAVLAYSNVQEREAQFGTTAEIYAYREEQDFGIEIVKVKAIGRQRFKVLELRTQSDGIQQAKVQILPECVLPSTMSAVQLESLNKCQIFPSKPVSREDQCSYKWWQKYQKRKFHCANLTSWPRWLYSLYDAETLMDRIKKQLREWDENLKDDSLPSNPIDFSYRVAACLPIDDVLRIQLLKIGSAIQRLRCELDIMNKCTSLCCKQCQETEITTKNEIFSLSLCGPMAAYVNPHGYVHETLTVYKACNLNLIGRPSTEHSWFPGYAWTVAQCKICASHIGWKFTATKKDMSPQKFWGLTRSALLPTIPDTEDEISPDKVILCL
T2 sequence (Q16531 whole entry partner): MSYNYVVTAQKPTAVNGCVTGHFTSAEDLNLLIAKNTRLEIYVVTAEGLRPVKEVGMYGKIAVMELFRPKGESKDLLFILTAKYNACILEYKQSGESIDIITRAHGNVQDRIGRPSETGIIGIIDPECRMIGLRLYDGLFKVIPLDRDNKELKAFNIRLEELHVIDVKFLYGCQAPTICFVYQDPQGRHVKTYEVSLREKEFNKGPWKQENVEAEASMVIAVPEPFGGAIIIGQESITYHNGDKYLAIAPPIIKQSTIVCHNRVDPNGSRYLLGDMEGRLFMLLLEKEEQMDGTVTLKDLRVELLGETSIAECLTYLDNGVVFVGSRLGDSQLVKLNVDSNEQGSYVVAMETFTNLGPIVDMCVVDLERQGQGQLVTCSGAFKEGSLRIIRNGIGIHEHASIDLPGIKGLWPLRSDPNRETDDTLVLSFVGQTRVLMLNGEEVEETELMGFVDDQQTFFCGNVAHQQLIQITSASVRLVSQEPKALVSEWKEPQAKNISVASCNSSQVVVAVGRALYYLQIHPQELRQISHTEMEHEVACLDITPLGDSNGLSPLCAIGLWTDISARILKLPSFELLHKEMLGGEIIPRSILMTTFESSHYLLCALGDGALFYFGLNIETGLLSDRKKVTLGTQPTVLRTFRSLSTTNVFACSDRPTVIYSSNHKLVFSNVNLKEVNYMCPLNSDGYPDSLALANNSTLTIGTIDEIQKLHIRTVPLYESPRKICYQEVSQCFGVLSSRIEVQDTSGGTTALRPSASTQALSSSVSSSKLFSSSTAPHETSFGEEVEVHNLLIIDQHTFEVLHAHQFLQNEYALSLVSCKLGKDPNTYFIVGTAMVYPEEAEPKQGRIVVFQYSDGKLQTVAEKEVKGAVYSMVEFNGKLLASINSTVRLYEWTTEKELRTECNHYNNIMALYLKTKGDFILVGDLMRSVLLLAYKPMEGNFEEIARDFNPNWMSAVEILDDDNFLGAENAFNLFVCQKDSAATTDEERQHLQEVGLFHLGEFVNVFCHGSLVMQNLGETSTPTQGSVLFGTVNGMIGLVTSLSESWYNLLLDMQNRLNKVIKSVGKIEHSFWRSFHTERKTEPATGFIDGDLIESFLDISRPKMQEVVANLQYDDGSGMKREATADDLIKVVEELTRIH
T1 sequence (Q96SW2 whole entry): as the sequence (Q96SW2 whole entry) above
T6 sequence (Q9UKS7 whole entry): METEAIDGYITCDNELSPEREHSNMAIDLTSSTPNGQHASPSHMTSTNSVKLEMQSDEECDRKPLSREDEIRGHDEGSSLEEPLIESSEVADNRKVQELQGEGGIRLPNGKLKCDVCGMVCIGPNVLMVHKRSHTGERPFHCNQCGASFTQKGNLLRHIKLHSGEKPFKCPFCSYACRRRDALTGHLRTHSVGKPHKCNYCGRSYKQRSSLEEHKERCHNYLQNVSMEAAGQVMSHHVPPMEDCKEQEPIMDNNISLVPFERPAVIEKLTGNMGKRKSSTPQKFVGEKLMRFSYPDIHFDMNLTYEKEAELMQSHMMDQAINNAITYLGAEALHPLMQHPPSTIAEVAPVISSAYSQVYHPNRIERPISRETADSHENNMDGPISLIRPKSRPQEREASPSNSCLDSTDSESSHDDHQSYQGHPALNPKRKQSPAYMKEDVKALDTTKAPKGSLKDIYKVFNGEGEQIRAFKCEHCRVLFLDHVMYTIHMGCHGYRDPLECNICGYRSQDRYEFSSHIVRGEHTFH
T6 sequence (Q96SW2 whole entry): as the sequence (Q96SW2 whole entry) above
T6 sequence (Q16531 whole entry partner): as the sequence (Q16531 whole entry partner) above
T3 sequence (P30291 whole entry): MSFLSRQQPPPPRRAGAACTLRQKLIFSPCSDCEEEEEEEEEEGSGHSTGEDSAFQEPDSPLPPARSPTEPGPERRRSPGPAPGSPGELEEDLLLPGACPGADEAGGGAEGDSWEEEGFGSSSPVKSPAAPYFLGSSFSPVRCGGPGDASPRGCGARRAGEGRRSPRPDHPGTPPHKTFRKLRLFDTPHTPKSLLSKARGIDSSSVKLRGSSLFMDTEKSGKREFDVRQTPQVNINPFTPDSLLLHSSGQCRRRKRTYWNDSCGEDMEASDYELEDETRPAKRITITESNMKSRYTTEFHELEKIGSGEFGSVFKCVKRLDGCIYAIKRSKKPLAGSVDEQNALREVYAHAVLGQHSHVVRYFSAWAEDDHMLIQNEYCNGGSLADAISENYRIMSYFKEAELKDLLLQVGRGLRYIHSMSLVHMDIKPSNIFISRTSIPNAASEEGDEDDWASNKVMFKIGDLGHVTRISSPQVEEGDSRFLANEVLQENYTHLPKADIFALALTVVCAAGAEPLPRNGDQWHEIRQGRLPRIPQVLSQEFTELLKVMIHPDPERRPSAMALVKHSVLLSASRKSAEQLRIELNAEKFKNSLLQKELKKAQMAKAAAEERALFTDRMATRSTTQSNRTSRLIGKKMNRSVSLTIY
T3 sequence (Q96SW2 whole entry): as the sequence (Q96SW2 whole entry) above
T3 sequence (Q16531 whole entry partner): as the sequence (Q16531 whole entry partner) above
T5 sequence (P48729 whole entry): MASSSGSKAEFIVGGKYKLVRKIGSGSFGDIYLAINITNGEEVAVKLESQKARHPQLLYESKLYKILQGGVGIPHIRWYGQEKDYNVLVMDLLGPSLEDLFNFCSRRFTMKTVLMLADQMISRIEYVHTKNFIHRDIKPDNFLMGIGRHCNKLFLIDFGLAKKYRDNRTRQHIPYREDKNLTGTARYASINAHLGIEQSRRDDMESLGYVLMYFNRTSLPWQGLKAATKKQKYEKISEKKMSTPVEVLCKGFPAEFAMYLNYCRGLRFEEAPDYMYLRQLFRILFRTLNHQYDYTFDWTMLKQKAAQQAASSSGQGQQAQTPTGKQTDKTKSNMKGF
T5 sequence (Q96SW2 whole entry): as the sequence (Q96SW2 whole entry) above
T5 sequence (Q16531 whole entry partner): as the sequence (Q16531 whole entry partner) above
T4 sequence (Q13422 whole entry): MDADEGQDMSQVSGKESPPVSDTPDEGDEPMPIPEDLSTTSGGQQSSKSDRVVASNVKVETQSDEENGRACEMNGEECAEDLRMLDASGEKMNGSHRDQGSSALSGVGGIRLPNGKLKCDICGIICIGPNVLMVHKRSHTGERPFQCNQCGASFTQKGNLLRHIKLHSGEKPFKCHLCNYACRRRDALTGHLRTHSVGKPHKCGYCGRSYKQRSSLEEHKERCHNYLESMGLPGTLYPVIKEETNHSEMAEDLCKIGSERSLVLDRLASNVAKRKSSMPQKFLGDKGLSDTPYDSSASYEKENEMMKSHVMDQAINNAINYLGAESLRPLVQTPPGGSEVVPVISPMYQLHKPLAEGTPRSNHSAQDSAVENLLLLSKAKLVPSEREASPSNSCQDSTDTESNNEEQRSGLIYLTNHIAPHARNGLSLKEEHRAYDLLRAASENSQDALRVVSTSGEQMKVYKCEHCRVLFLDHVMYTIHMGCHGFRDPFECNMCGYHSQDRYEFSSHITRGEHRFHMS
T4 sequence (Q96SW2 whole entry): as the sequence (Q96SW2 whole entry) above
T4 sequence (Q16531 whole entry partner): as the sequence (Q16531 whole entry partner) above

Compound | inhibition at 0.5 µM [1] [%] | inhibition at 2 µM [1] [%] | inhibition at 0.01 µM [2] [%] | Inhibition Rate at 500 nM (%) [2] | IKZF3 substrate protein remaining % (IKZF3; [4]) | Wee1 substrate protein remaining % (WEE1; [4]) | IKZF 1 substrate protein remaining % (IKZF1; [4]) | CK1α substrate protein remaining % (CK1α; [4]) | IKZF2 substrate protein remaining % (IKZF2; [4]) | inhibition at 0.01 µM [3] [%] | inhibition at 0.5 µM [3] [%] | GSPT1 substrate protein remaining % (GSPT1; [4]) | inhibition at 0.5 µM [2] [%] | IKZF3 substrate protein remaining % (IKZF3; [5]) | Wee1 substrate protein remaining % (WEE1; [5]) | IKZF 1 substrate protein remaining % (IKZF1; [5]) | CK1α substrate protein remaining % (CK1α; [5]) | IKZF2 substrate protein remaining % (IKZF2; [5]) | GSPT1 substrate protein remaining % (GSPT1; [5])
O=C1CCC(N2Cc3cc(CN4C5CCC4CN(C(c4ccccc4)c4ccccc4)C5)ccc3C2=S)C(=O)N1 (stereo not shown) [GT-07850, 3-(5-((3-benzhydryl-3,8-diazabicyclo[3.2.1]octan-8-yl)methyl)-1-thioxoisoindolin-2-yl)piperidine-2,6-dione] | 40 to 53 | 80 to 100 | 30 to 40 | la7 | B (80%< substrate protein remaining %≤ 100%) | A (0% ≤ substrate protein remaining % ≤ 80%) | B (80%< substrate protein remaining %≤ 100%) | B (80%< substrate protein remaining %≤ 100%) | A (0% ≤ substrate protein remaining % ≤ 80%) | 40 to 60 | 40 to 60 | A (0% ≤ substrate protein remaining % ≤ 80%) |  |  |  |  |  |  | 
O=C1CCC(N2Cc3cc(CN4CCN(c5ccc(F)cc5)CC4)ccc3C2=S)C(=O)N1 (stereo not shown) [GT-08240, 3-(5-((4-(4-fluorophenyl)piperazin-1-yl)methyl)-1-thioxoisoindolin-2-yl)piperidine-2,6-dione] | 53 to 60 | 80 to 100 | 50 to 60 |  | B (80%< substrate protein remaining %≤ 100%) | B (80%< substrate protein remaining %≤ 100%) | B (80%< substrate protein remaining %≤ 100%) | B (80%< substrate protein remaining %≤ 100%) | B (80%< substrate protein remaining %≤ 100%) | 0 to 5 | 40 to 60 | A (0% ≤ substrate protein remaining % ≤ 80%) | 50 to 60 |  |  |  |  |  | 
Cc1ccsc1C1CCN(Cc2ccc3c(c2)CN(C2CCC(=O)NC2=O)C3=S)CC1 (stereo not shown) [GT-08323, 3-(5-((4-(3-methylthiophen-2-yl)piperidin-1-yl)methyl)-1-thioxoisoindolin-2-yl)piperidine-2,6-dione] | 40 to 53 | 80 to 100 | 0 to 5 | la7 |  |  |  |  |  | -5 to 0 | 40 to 60 |  |  | B (80%< substrate protein remaining %≤ 100%) | B (80%< substrate protein remaining %≤ 100%) | B (80%< substrate protein remaining %≤ 100%) | A (0% ≤ substrate protein remaining % ≤ 80%) | B (80%< substrate protein remaining %≤ 100%) | A (0% ≤ substrate protein remaining % ≤ 80%)
O=C1CCC(N2Cc3c(CN4C[C@@H]5C[C@H]4CN5c4cccc(Cl)c4Cl)cccc3C2=S)C(=O)N1 (stereo partly drawn) [GT-08468, 3-(4-(((1S,4S)-5-(2,3-dichlorophenyl)-2,5-diazabicyclo[2.2.1]heptan-2-yl)methyl)-1-thioxoisoindolin-2-yl)piperidine-2,6-dione] | 40 to 53 | 80 to 100 | 40 to 50 |  | B (80%< substrate protein remaining %≤ 100%) | B (80%< substrate protein remaining %≤ 100%) | B (80%< substrate protein remaining %≤ 100%) | B (80%< substrate protein remaining %≤ 100%) | B (80%< substrate protein remaining %≤ 100%) | 40 to 60 | 40 to 60 | A (0% ≤ substrate protein remaining % ≤ 80%) | 50 to 60 |  |  |  |  |  | 
O=C1CCC(N2Cc3c(CN4C5CCC4CN(c4cccc(Cl)c4Cl)C5)cccc3C2=S)C(=O)N1 (stereo not shown) [GT-08471, 3-(4-((3-(2,3-dichlorophenyl)-3,8-diazabicyclo[3.2.1]octan-8-yl)methyl)-1-thioxoisoindolin-2-yl)piperidine-2,6-dione] | 30 to 40 | 60 to 80 | 40 to 50 |  | B (80%< substrate protein remaining %≤ 100%) | B (80%< substrate protein remaining %≤ 100%) | B (80%< substrate protein remaining %≤ 100%) | B (80%< substrate protein remaining %≤ 100%) | B (80%< substrate protein remaining %≤ 100%) | 40 to 60 | 40 to 60 | A (0% ≤ substrate protein remaining % ≤ 80%) | 40 to 50 |  |  |  |  |  | 

Further lines, with some results ahead:

inhibition at 0.5 µM [1] [%] | inhibition at 2 µM [1] [%] | Compound | inhibition at 0.01 µM [2] [%] | Inhibition Rate at 500 nM (%) [2] | IKZF3 substrate protein remaining % (IKZF3; [4]) | Wee1 substrate protein remaining % (WEE1; [4]) | IKZF 1 substrate protein remaining % (IKZF1; [4]) | CK1α substrate protein remaining % (CK1α; [4]) | IKZF2 substrate protein remaining % (IKZF2; [4]) | inhibition at 0.01 µM [3] [%] | inhibition at 0.5 µM [3] [%] | GSPT1 substrate protein remaining % (GSPT1; [4]) | inhibition at 0.5 µM [2] [%] | IKZF3 substrate protein remaining % (IKZF3; [5]) | Wee1 substrate protein remaining % (WEE1; [5]) | IKZF 1 substrate protein remaining % (IKZF1; [5]) | CK1α substrate protein remaining % (CK1α; [5]) | IKZF2 substrate protein remaining % (IKZF2; [5]) | GSPT1 substrate protein remaining % (GSPT1; [5])
60 to 80 | 80 to 100 | O=C1CCC(N2Cc3cc(CN4CCCN(c5cccc(Cl)c5Cl)CC4)ccc3C2=S)C(=O)N1 (stereo not shown) [GT-08481, 3-(5-((4-(2,3-dichlorophenyl)-1,4-diazepan-1-yl)methyl)-1-thioxoisoindolin-2-yl)piperidine-2,6-dione] | 30 to 40 |  | B (80%< substrate protein remaining %≤ 100%) | B (80%< substrate protein remaining %≤ 100%) | B (80%< substrate protein remaining %≤ 100%) | B (80%< substrate protein remaining %≤ 100%) | B (80%< substrate protein remaining %≤ 100%) | 18 to 25 | 60 to 80 | A (0% ≤ substrate protein remaining % ≤ 80%) | 70 to 80 |  |  |  |  |  | 
30 to 40 | 53 to 60 | O=C1CCC(N2Cc3c(CN4CC=C(c5cccc6c(F)cccc56)CC4)cccc3C2=S)C(=O)N1 (stereo not shown) [GT-08856, 3-(4-((4-(5-fluoronaphthalen-1-yl)-3,6-dihydropyridin-1(2H)-yl)methyl)-1-thioxoisoindolin-2-yl)piperidine-2,6-dione] | 20 to 30 |  |  |  |  |  |  | 40 to 60 | 40 to 60 |  | 40 to 50 |  |  |  |  |  | 
60 to 80 | 80 to 100 | O=C1CCC(N2Cc3cc(CN4CCN(c5cncc(Cl)c5Cl)CC4)ccc3C2=S)C(=O)N1 (stereo not shown) [GT-09231, 3-(5-((4-(4,5-dichloropyridin-3-yl)piperazin-1-yl)methyl)-1-thioxoisoindolin-2-yl)piperidine-2,6-dione] |  |  | A (0% ≤ substrate protein remaining % ≤ 80%) | B (80%< substrate protein remaining %≤ 100%) | A (0% ≤ substrate protein remaining % ≤ 80%) | A (0% ≤ substrate protein remaining % ≤ 80%) | A (0% ≤ substrate protein remaining % ≤ 80%) | 30 to 40 | 40 to 60 | A (0% ≤ substrate protein remaining % ≤ 80%) |  |  |  |  |  |  | 
60 to 80 | 80 to 100 | O=C1CCC(N2Cc3cc(CN4CCN(c5c(F)c(F)nc(F)c5F)CC4)ccc3C2=S)C(=O)N1 (stereo not shown) [GT-09250, 3-(5-((4-(perfluoropyridin-4-yl)piperazin-1-yl)methyl)-1-thioxoisoindolin-2-yl)piperidine-2,6-dione] | 30 to 40 | la7 |  |  |  |  |  | 30 to 40 | 40 to 60 |  |  |  |  |  |  |  | 
